The subject of series [1] is Legionella pneumophila isolates. Kind of series: microbe, parasite or virus in culture. It counts as cell-based. Particulars: for MIC50 / MIC90: Legionella pneumophila; for MIC50: read-out: MIC50 (average); for MIC90: read-out: MIC90 (average).
Series [2] concerns various strains of L. pneumophila. It counts as cell-based.
Series [3] concerns Staphylococcus aureus (ATCC strain 29213). Kind of series: MIC of quality control strain on Mueller-Hinton agar and on Lasarus medium. It counts as cell-based.
A further series concerns rats. Particulars: rat, in vivo, po.
The test system of a further series is Legionella. It counts as cell-based.
[4] abbreviates: ATCC29213, S. aureus ATCC 29213 on Lasarus medium, read-out: MIC100 (on Lasarus medium).
The mark [5] stands for this setting: ATCC29213, S. aureus ATCC 29213 on standard Mueller-Hinton agar, read-out: MIC100 (on M-Hinton).
Setting [6] is: 92 Legionella pneumophila isolates on Lasarus solid medium.
The mark [7] stands for this setting: average across 92 Legionella pneumophila isolates on Lasarus solid medium.

Values after ≈ are worked out from the molar mass of the structure shown. Like-named read-outs stand apart in the source and are kept apart here.

A word on the LD50: it is the dose at which mortality reaches 50%. Read a high LD50 as a less toxic substance.

On to `CC1(C)S[C@@H]2[C@H](NC(=O)[C@H](N)c3ccccc3)C(=O)N2[C@H]1C(=O)O` [Ampacilin], for which, in series [1], the “MIC50 (average)” value is 8 µg/mL (≈ 22.9 µM), the “MIC90 (average)” value stood at 32 µg/mL (≈ 91.6 µM) and the “Ranges (MIC100)” value lay in the range of 1 to 32 µg/mL.
For the molecule `CC[C@H]1OC(=O)[C@H](C)[C@@H](O[C@H]2C[C@@](C)(OC)[C@@H](O)[C@H](C)O2)[C@H](C)[C@@H](O[C@@H]2O[C@H](C)C[C@H](N(C)C)[C@H]2O)[C@](C)(O)C[C@@H](C)CN(C)[C@H](C)[C@@H](O)[C@]1(C)O` [Azithromycin], the “number of strains that could grow (on average)” value was “more than 20 strains” in series [2] (BCYE, antibiotic 0.25 μg/ml); > 5 strains in series [2] (BCYE, antibiotic 0.5 μg/ml); “less than 15 strains” in series [2] (medium (Lasarus), antibiotic 0.06 μg/ml). In series [2] (Lasarus medium, antibiotic 0.03 μg/ml), the “number of strains tested that could grow (on average)” value is on record as ~20 strains. Also, in series [2] (Lasarus medium, antibiotic 0.125 μg/ml), the “number of strains tested that could grow” value was “None”. The MIC in series [3] (setting [4]) and in series [3] (setting [5]) was 2 µg/mL throughout. Further, the “Ranges (MIC100)” value in series [1] (setting [6]) is 0.008 to 0.25 µg/mL. Further, the MIC50 in series [1] was 0.03 µg/mL (≈ 0.0401 µM). Moreover, in series [1], the MIC90 amounted to 0.125 µg/mL (≈ 0.167 µM).
`[Ba+2].[Cl-].[Cl-]` [BaCl2, barium chloride] showed a 50% lethal dose (LD50) in the series with rats of 78 mg/kg. In the series with Legionella, this molecule returned an MIC50 of 4 mM and an MIC90 of 9 mM.
Molecule `[Ca+2].[Cl-].[Cl-]` [CaCl2, calcium chloride] yielded an LD50 in the series with rats of 1000 mg/kg. In the series on Legionella, this molecule had an MIC50 of 9 mM and an MIC90 of 18 mM.
For the molecule `O=C(N[C@H](CO)[C@H](O)c1ccc([N+](=O)[O-])cc1)C(Cl)Cl` [Chloramphenicol], in series [3] (setting [4]), the MIC worked out at 4 µg/mL. Also, the MIC in series [3] (setting [5]) came out at 4 µg/mL. In series [1] (setting [6]), the “Ranges (MIC100)” value was in the range of 0.25 to 1 µg/mL. Further, in series [1], the MIC50 amounted to 0.5 µg/mL (≈ 1.55 µM) and the MIC90 stood at 0.5 µg/mL (≈ 1.55 µM).
Turning to `O=C(O)c1cn(C2CC2)c2cc(N3CCNCC3)c(F)cc2c1=O` [Ciprofloxacin], in series [1] (setting [6]), the “Ranges (MIC100)” value is 0.008 to 0.06 µg/mL. Moreover, in series [1], the MIC50 is 0.03 µg/mL (≈ 0.0905 µM) and the MIC90 was 0.06 µg/mL (≈ 0.181 µM).
Regarding `[Cl-].[Cs+]` [CsCl, caesium chloride], the LD50 with rats is 2600 mg/kg. In the series on Legionella, this molecule yielded an MIC50 of 18 mM and an MIC90 of 37 mM.
In the case of `C[C@H]1COc2c(N3CCN(C)CC3)c(F)cc3c(=O)c(C(=O)O)cn1c23` [Levofloxacin], the “number of strains that could grow (on average)” value in series [2] (BCYE, antibiotic 1 μg/ml) is “more than 25 strains”; in series [2] (BCYE, antibiotic 2 μg/ml), “more than 15 strains”. In addition, the “number of strains tested that could grow (on average)” value in series [2] (Lasarus medium, antibiotic 0/03 μg/ml) is ~30 strains. Moreover, the MIC in series [3] (setting [4]) and in series [3] (setting [5]) was 0.25 µg/mL throughout. Also, the “Ranges (MIC100)” value in series [1] (setting [6]) is 0.008 to 0.06 µg/mL. The MIC50 in series [1] is 0.03 µg/mL (≈ 0.083 µM). Moreover, the MIC90 in series [1] stood at 0.06 µg/mL (≈ 0.166 µM).
As for `[Cl-].[Li+]` [LiCl, lithium chloride], the LD50 in the series on rats came to 526 mg/kg. In the series on Legionella, the MIC50 is 75 mM and the MIC90 was found to be 75 mM.
`[Cl-].[Cl-].[Mg+2]` [MgCl, magnesium chloride] returned a 50% lethal dose (LD50) in the series on rats of 2800 mg/kg. In the series with Legionella, this molecule displayed an MIC50 of 37 mM and an MIC90 of 75 mM.
`[Cl-].[Na+]` [NaCl, sodium chloride] showed an LD50 in the series with rats of 3000 mg/kg. Further, in the series with Legionella, the MIC50 was determined as 150 mM and the MIC90 was 150 mM.
The molecule `[Cl-].[Rb+]` [RbCl, rubidium chloride] yielded a 50% lethal dose (LD50) in the series with rats of 4440 mg/kg. In the series with Legionella, this molecule had an MIC50 of 150 mM and an MIC90 of 150 mM.
`CO[C@H]1/C=C/O[C@@]2(C)Oc3c(C)c(O)c4c(O)c(c(/C=N/N5CCN(C)CC5)c(O)c4c3C2=O)NC(=O)/C(C)=C\C=C\[C@H](C)[C@H](O)[C@@H](C)[C@@H](O)[C@@H](C)[C@H](OC(C)=O)[C@@H]1C` [Rifampacin]: the “number of strains that could grow (on average)” value in series [2] (BCYE, antibiotic 0.06 μg/ml) was “more than 30 strains”; in series [2] (BCYE, antibiotic 0.125 μg/ml) it was “more than 15 strains”. Moreover, the “number of strains tested that could grow (on average)” value in series [2] (Lasarus medium, antibiotic 0.004 μg/ml, quadruplicate) was ~35 strains. For the same molecule, the “number of strains that could grow (on average), reduced number” value in series [2] (medium, antibiotic concentration printed as 0.004 μg/ml (second mention)) is reported as “less than 15 strains”. Besides, the MIC in series [3] (setting [4]) and in series [3] (setting [5]) was 0.016 µg/mL each time. The “Ranges (MIC100)” value in series [1] (setting [6]) fell in the range of 0.002 to 0.008 µg/mL. Moreover, in series [1], the MIC50 stood at 0.004 µg/mL (≈ 0.00486 µM). Moreover, the MIC90 in series [1] was found to be 0.008 µg/mL (≈ 0.00972 µM).
As to `[Cl-].[Cl-].[Sr+2]` [SrCl, strontium chloride], the LD50 with rats came to 2250 mg/kg. In the series with Legionella, this molecule returned an MIC50 of 18 mM and an MIC90 of 18 mM.
`CN(C)[C@@H]1C(O)=C(C(N)=O)C(=O)[C@@]2(O)C(O)=C3C(=O)c4c(O)cccc4[C@@](C)(O)[C@H]3C[C@@H]12` [Tetracycline]: the “Ranges (MIC100)” value in series [1] (setting [6]) was 32 to 128 µg/mL. Moreover, in series [1], the MIC50 amounted to 128 µg/mL (≈ 288 µM) and the MIC90 came to 128 µg/mL (≈ 288 µM).
As to Gentamycin, the “Ranges (MIC100)” value in series [1] (setting [6]) lay within 0.06 to 1 µg/mL. Besides, in series [1] (setting [7]), the “MIC50 (average)” value was determined as 0.25 µg/mL and the “MIC90 (average)” value came to 0.5 µg/mL.
In the series on Legionella, beryllium sulfate [BeSO4] returned an MIC50 of 4 mM and an MIC90 of 4 mM.

The values are drawn from patent US12180461B2 (priority 2018, dated 2024).
